These results are taken from patent US11278624B2, “Formulations” (Arecor Limited, priority 2016, dated 2022).

The nature of data set [1]: Visual assessment of insulin lispro (100 U/ml) formulations with 0.4 mM EDTA and different surfactants after storage. It counts as physicochemical. Conditions: insulin lispro 100 U/ml with 0.4 mM EDTA; for effect of surfactant on precipitation: 30° C. for 4 weeks. As for the experimental part:
(§1) European Pharmacepoeia Monograph (Particulate Contamination: Visible Particles).
(§2) The presence of any particles is recorded.
The effect of different surfactants was tested on stability of insulin lispro (100 U/ml) in the presence of 0.4 mM EDTA. The visual assessment method described in General Methods was used.

Data set [2] can be described thus: Size exclusion chromatography main peak of insulin lispro formulations after storage. It counts as physicochemical. To be noted: insulin lispro 100 U/ml with 0.4 mM EDTA; 30° C. for 4 weeks. A general note: In gel filtration, larger molecules generally elute earlier.
A short description of data set [3]: Visual Assessment Scoring Method B, insulin aspart (100 U/ml) with trisodium citrate, L-histidine or pyrophosphate, storage at 30° C. It counts as physicochemical. On the procedure: as §1, §2
(§3) Visual Assessment Scoring Method B
(§4) Visual score 1: Clear solution, virtually free of particles
(§5) Visual score 2: ˜5 very small particles
(§6) Visual score 3: ˜10-20 very small particles
(§7) Visual score 4: 20-50 particles, including larger particles
(§8) Visual score 5: >50 particles, including larger particles

Data set [4] in a line: Visual Assessment Scoring Method B, insulin lispro (100 U/ml) with citric acid, storage at indicated temperatures. Conditions: insulin lispro 100 U/ml with citric acid 22 mM.
Text: The apparatus required consists of a viewing station comprising: • a matt black panel of appropriate size held in a vertical position • a non-glare white panel of appropriate size held in a vertical position next to the black panel • an adjustable lampholder fitted with a suitable, shaded, white-light source and with a suitable light diffuser (a viewing illuminator containing two 13 W fluorescent tubes, each 525 mm in length, is suitable).
Any adherent labels are removed from the container and the outside washed and dried. The container is gently swirled or inverted, ensuring that air bubbles are not introduced, and observed for about 5 s in front of the white panel. The procedure is repeated in front of the black panel. The presence of any particles is recorded.
Whilst the particles in samples with visual scores 4 and 5 are clearly detectable on casual visual assessment under normal light, samples with visual score 1-3 generally appear as clear solutions on the same assessment. Samples with visual scores 1-3 are considered to be “Pass”; samples with visual score 4-5 are considered to be “Fail”.
Stability of insulin lispro (100 U/ml) was investigated in formulations comprising citric acid (22 mM), both in the presence and in the absence of polysorbate 80.
The conditions of data set [5]: 25° C.; as quoted by NIST reference database 46; cited from earlier work.
Data set [6] is described as follows: Visual Assessment Scoring Method A, insulin aspart (100 U/ml) with 22 mM sodium citrate, storage at 30° C. Format: physicochemical. As for the experimental part:
as §1, §2
Visual Assessment Scoring Method A
Visual score 1: clear solution free of particles
Visual score 2: slight particle formation
Visual score 3: more significant precipitation

Data set [7] in a line: Visual Assessment Scoring Method B, insulin aspart (1000 U/ml) with trisodium citrate, L-histidine or pyrophosphate. It counts as physicochemical. As for the experimental part:
as §1, §2, §3, §4, §5, §6, §7, §8

The nature of data set [8]: Visual Assessment Scoring Method B, insulin aspart (1000 U/ml) with different concentrations of citric acid and polysorbate 80. It counts as physicochemical. To be noted: insulin aspart 1000 U/ml with citric acid 44-88 mM. As for the experimental part: as §1, §2, §3, §4, §5, §6, §7, §8
The stability of insulin aspart (1000 U/ml) was investigated in the presence of different concentrations of citric acid and different concentrations of polysorbate 80. […] Three concentrations of citric acid (44, 66 and 88 mM) and four concentrations of each non-ionic surfactant were tested as well as corresponding surfactant-free compositions.

Turning to `CC(C)(C)CC(C)(C)c1ccc(OCCOCC[N+](C)(C)Cc2ccccc2)cc1` [benzethonium chloride], in data set [1], the “effect of surfactant on precipitation” value is “prevented precipitation”. Moreover, the “effect of surfactant on reduction in size of the main peak on SEC and RP-HPLC chromatograms” value (“effect of surfactant on reduction” below) in data set [2] is listed as “did not prevent”.

Regarding `CCCCCCCCCCCCC[N+](C)(C)Cc1ccccc1` [benzalkonium chloride], the “effect of surfactant on precipitation” value in data set [1] was “prevented precipitation”. Besides, in data set [2], the “effect of surfactant on reduction” value was “did not prevent”.

“polyoxyethylene (20) sorbitan monolaurate [Polysorbate 20]”: the “effect of surfactant on particle formation rate” value in data set [3] was “not effective at all”. For the same compound, the “effect of surfactant on destabilising effect of citric acid” value (“effect of surfactant … of citric acid” for short) in data set [4] is “notably weaker than that of polysorbate 80”.

With `O=C(O)CN(CCN(CC(=O)O)CC(=O)O)CC(=O)O` [EDTA, ethylenediaminetetraacetate], the “log K metal binding stability constant with respect to zinc binding” value (from here on “log K metal binding stability constant”) in data set [5] is reported as 14.5.

As to `O=C(O)CC(O)(CC(=O)O)C(=O)O` [citrate], in data set [5], the “log K metal binding stability constant” value is recorded as 4.93.

As to `CCCCCCCCCCCCO[C@@H]1O[C@H](CO)[C@@H](O[C@H]2O[C@H](CO)[C@@H](O)[C@H](O)[C@H]2O)[C@H](O)[C@H]1O` [dodecyl maltoside], the “effect of surfactant on precipitation” value in data set [1] is reported as “prevented precipitation”. The “effect of surfactant on reduction” value in data set [2] was “did not prevent”.

As to poloxamer 188, the “effect of surfactant on particle formation rate” value in data set [3] is recorded as “worse than that of polysorbate 80”. In addition, in data set [4], the “effect of surfactant … of citric acid” value is listed as “notably weaker than that of polysorbate 80”.

With `N[C@@H](Cc1c[nH]cn1)C(=O)O` [histidine], in data set [5], the “log K metal binding stability constant” value is on record as 6.51.

Regarding `O=C(O)CN(CCOCCOCCN(CC(=O)O)CC(=O)O)CC(=O)O` [EGTA, ethyleneglycoltetraacetate], the “log K metal binding stability constant” value in data set [5] was 12.6.

On to `O=P(O)(O)OP(=O)(O)O` [pyrophosphate], for which, in data set [5], the “log K metal binding stability constant” value is reported as 8.71.

On to “polyoxyethylene (20) sorbitan monooleate [polysorbate 80]”, for which, in data set [1] (visual, SEC and RP-HPLC taken together), the “stability after storage at 30° C. for 4 weeks” value is “almost comparable with the EDTA-free control”. Moreover, the “effect of surfactant on rate of particle formation” value in data set [6] is reported as “considerable reduction in the rate of particle formation”; in data set [7], “stabilising effect”; in data set [8], “reduction in the rate of particle formation”. In addition, the “effect of surfactant on particle formation rate” value in data set [3] is recorded as “stabilising effect”. Further, the “effect of surfactant … of citric acid” value in data set [4] is given as “appeared to mitigate the destabilising effect”.
